{"source": "patent US6649745B2", "about": "(priority 2002, dated 2003)", "key": {"[1]": {"system": "immunecompromised mice", "format": "in vivo", "settings": "for Antibody titer % change compared to control / Antibody titer mean ± S.E.: titre on 5th day; for Antibody titer mean ± S.E.: n=12"}, "[2]": {"system": "immunecompromised mice", "format": "in vivo", "settings": "for DTH mean ± S.E.: n=12"}, "[3]": {"settings": "0.0006 mg/kg p.o., day 0-4, immunecompromised mice"}, "[4]": {"settings": "0.0125 mg/kg p.o., day 0-4, immunecompromised mice"}, "[5]": {"settings": "oral, dose levels 0.0062-0.0125 mg Kg^-1, immunecompromised experimental animals"}, "[6]": {"settings": "0.0006 mg/kg p.o., day 0-4, immunecompromised mice, foot thickness on 5th day"}, "[7]": {"settings": "0.0125 mg/kg p.o., day 0-4, immunecompromised mice, foot thickness on 5th day"}, "[8]": {"settings": "250 mg/kg p.o., day 0-4, SRBC-sensitized mice"}, "[9]": {"settings": "2.5 mg/kg p.o., day 0-4, immunecompromised mice"}, "[10]": {"settings": "2.5 mg/kg p.o., day 0-4, immunecompromised mice, foot thickness on 5th day"}}, "note": "Read-outs that look alike come from different tables or passages of the source. Marks after values point to notes of the source that are not given here.", "data": [{"molecule": "3-0-[α-L-rhamnopyranosyl-(1→2)-α-L-rhamnopyranosyl-(1→4)-0-β-D-glucopyranosyl]-25(S)-5β-spirostan-3β-ol [AR-Iv]", "values": [{"measurement": "Antibody titer % change compared to control", "setting": "[1]; [3]", "result": "56** %"}, {"measurement": "Antibody titer mean ± S.E.", "setting": "[1]; [3]", "result": "5.60 ± 0.33"}, {"measurement": "Antibody titer % change compared to control", "setting": "[1]; [4]", "result": "78*** %"}, {"measurement": "Antibody titer mean ± S.E.", "setting": "[1]; [4]", "result": "6.41 ± 0.16"}, {"measurement": "potentiation of antibody synthesis", "setting": "[1]; [5]", "result": "55.55-69.44%"}, {"measurement": "DTH % change compared to control", "setting": "[2]; [6]", "result": "78*** %"}, {"measurement": "DTH mean ± S.E.", "setting": "[2]; [6]", "result": "0.80 ± 0.14"}, {"measurement": "DTH % change compared to control", "setting": "[2]; [7]", "result": "102*** %"}, {"measurement": "DTH mean ± S.E.", "setting": "[2]; [7]", "result": "0.91 ± 0.42"}, {"measurement": "enhancement of cell-mediated immune response", "setting": "[2]; [5]", "result": "77.77-102.22%"}]}, {"molecule": "Cyclodextrin [reference compound]", "values": [{"measurement": "Antibody titer % change compared to control", "setting": "[1]; [8]", "result": "45* %"}, {"measurement": "Antibody titer mean ± S.E.", "setting": "[1]; [8]", "result": "3.60 ± 0.33"}, {"measurement": "DTH mean ± S.E.", "setting": "[2]; 250 mg/kg p.o., day 0-4, SRBC challenge in footpad on 4th day, foot thickness on 5th day", "result": "0.45 ± 0.24"}, {"measurement": "DTH % change compared to control", "setting": "[2]; 250 mg/kg p.o., day 0-4, foot thickness on 5th day", "result": "23* %"}]}, {"molecule": "c1ccc([C@H]2CN3CCSC3=N2)cc1", "note": "[LEV, Levamisole, reference compound]", "values": [{"measurement": "Antibody titer % change compared to control", "setting": "[1]; [9]", "result": "89*** %"}, {"measurement": "Antibody titer mean ± S.E.", "setting": "[1]; [9]", "result": "6.80 ± 0.30"}, {"measurement": "DTH % change compared to control", "setting": "[2]; [10]", "result": "140*** %"}, {"measurement": "DTH mean ± S.E.", "setting": "[2]; [10]", "result": "1.08 ± 0.14"}]}]}
